Experimental data from patent publication US8269026B2, “Lupane derivatives useful for treating HIV” (priority 2008, dated 2012).
Structures can show the parent of a compound that is named as a salt.

Test system: HIV-1 (HIVIIIB) replication in MT2 cell line
Experiment: HIV-1 replication in MT2 cell line with and without 30% human serum (viral RT activity in supernatant)
Assay type: cell-based
Details: Human immunodeficiency virus 1, MT2 cells, with 30% human serum, average IC50 if tested more than once, read-out: MT2 (HIVIIIB) with HS 30% IC50 range
Outline: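 Read-out is supernatant reverse transcriptase activity on day 5 post-infection, giving IC50 and IC90. Compounds were titrated in complete medium ± 30% human serum, re-dosed after 3 days, on MT2 cells exposed for 3 h to HIVIIIB at MOI 0.5 then washed.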

| SMILES | IC50 |
| --- | --- |
| CC(C)C1=C2C3CCC4[C@@]5(C)CC[C@H](OC(=O)CC(C)(C)C(=O)O)C(C)(C)C5CC[C@@]4(C)[C@]3(C)CC[C@@]2(NC(=O)N2CC[C@H](N)C2)CC1=O (stereo partly drawn) [17-43, 3β-O-(3′,3′-Dimethylsuccinyl)-17β-[((S)-3-amino-pyrrolidine-1-carbonyl)-amino]-21-oxolup-18-ene] | < 199 nM |
| CC(C)C1=C2C3CCC4[C@@]5(C)CC[C@H](OC(=O)CC(C)(C)C(=O)O)C(C)(C)C5CC[C@@]4(C)[C@]3(C)CC[C@@]2(NC(=O)N2CC[C@@H](NC(=O)OC(C)(C)C)C2)CC1=O (stereo partly drawn) [17-40, 3β-O-(3′,3′-Dimethylsuccinyl)-17β-[((R)-3-tert-butyloxycarbonylamino-pyrrolidine-1-carbonyl)-amino]-21-oxolup-18-ene] | < 199 nM |
| CC(C)C1=C2C3CCC4[C@@]5(C)CC[C@H](OC(=O)CC(C)(C)C(=O)O)C(C)(C)C5CC[C@@]4(C)[C@]3(C)CC[C@@]2(NC(=O)NCc2ccncn2)CC1=O (stereo partly drawn) [17-52, 3β-O-(3′,3′-Dimethylsuccinyl)-17β-[N′-(pyrimidin-4-ylmethyl)ureido]-21-oxolup-18-ene] | < 199 nM |
| CC(C)C1=C2C3CCC4[C@@]5(C)CC[C@H](OC(=O)CC(C)(C)C(=O)O)C(C)(C)C5CC[C@@]4(C)[C@]3(C)CC[C@@]2(NC(=O)[C@@H]2CCCN2C(=O)OC(C)(C)C)CC1=O (some centres unmarked) [19-57] | < 199 nM |
| CC(C)C1=C2C3CCC4[C@@]5(C)CC[C@H](OC(=O)CC(C)(C)C(=O)O)C(C)(C)C5CC[C@@]4(C)[C@]3(C)CC[C@@]2(NC(=O)O[C@@H]2CCN(C)C2)CC1=O (stereo partly drawn) [20-13, 3β-O-(3′,3′-Dimethylsuccinyl)-17β-((R)-1-methylpyrrolidine-3-oxycarbonylamino)-21-oxolup-18-ene] | < 199 nM |
| CC(C)C1=C2C3CCC4[C@@]5(C)CC[C@H](OC(=O)CC(C)(C)C(=O)O)C(C)(C)C5CC[C@@]4(C)[C@]3(C)CC[C@@]2(NC(=O)NC(C)(C)C)CC1=O (stereo partly drawn) [17-5, 3β-O-(3′,3′-Dimethylsuccinyl)-17β-[N′-(tert-butyl)ureido]-21-oxolup-18-ene] | < 199 nM |
| CC(C)C1=C2C3CCC4[C@@]5(C)CC[C@H](OC(=O)CC(C)(C)C(=O)O)C(C)(C)C5CC[C@@]4(C)[C@]3(C)CC[C@@]2(NC(=O)NCc2ccncc2)CC1=O (stereo partly drawn) [17-31, 3β-O-(3′,3′-Dimethylsuccinyl)-17β-[N′-(pyridin-4-ylmethyl)ureido]-21-oxolup-18-ene] | < 199 nM |
| CC(C)C1=C2[C@H]3CC[C@@H]4[C@@]5(C)CC[C@H](OC(=O)CC(C)(C)C(=O)O)C(C)(C)[C@@H]5CC[C@@]4(C)[C@]3(C)CC[C@@]2(NC(=O)c2ccccn2)CC1=O [19-15, 3β-O-(3′,3′-Dimethylsuccinyl)-17β-(Pyridin-2-yl)amido-21-oxolup-18-ene hydrochloride] | < 199 nM |
| Cc1ccc(C(=O)N[C@@]23CC[C@]4(C)[C@H](CC[C@@H]5[C@@]6(C)CC[C@H](OC(=O)CC(C)(C)C(=O)O)C(C)(C)[C@@H]6CC[C@]54C)C2=C(C(C)C)C(=O)C3)cc1 [19-43, 3β-O-(3′,3′-Dimethylsuccinyl)-17β-(4-methylbenzamido)-21-oxolup-18-ene] | < 199 nM |
| CC(C)C1=C2C3CCC4[C@@]5(C)CC[C@H](OC(=O)CC(C)(C)C(=O)O)C(C)(C)C5CC[C@@]4(C)[C@]3(C)CC[C@@]2(NC(=O)CN2CCC2)CC1=O (stereo partly drawn) [19-73, 3β-O-(3′,3′-Dimethylsuccinyl)-17β-(1-azetidin-acetamido)-21-oxolup-18-ene] | < 199 nM |
| CC(C)C1=C2[C@H]3CC[C@@H]4[C@@]5(C)CC[C@H](OC(=O)CC(C)(C)C(=O)O)C(C)(C)[C@@H]5CC[C@@]4(C)[C@]3(C)CC[C@@]2(NC(=O)N2CCNCC2)CC1=O [17-15, 3β-O-(3′,3′-Dimethylsuccinyl)-17β-[(piperazine-1-carbonyl)-amino]-21-oxolup-18-ene] | < 199 nM |
| CC(C)C1=C2C3CCC4[C@@]5(C)CC[C@H](OC(=O)CC(C)(C)C(=O)O)C(C)(C)C5CC[C@@]4(C)[C@]3(C)CC[C@@]2(NC(=O)NC2(c3ccccc3)CC2)CC1=O (stereo partly drawn) [17-66, 3β-O-(3′,3′-Dimethylsuccinyl)-17β-[N′-(1-phenyl-cyclopropyl)-ureido]-21-oxolup-18-ene] | < 199 nM |
| CC(C)C1=C2[C@H]3CC[C@@H]4[C@@]5(C)CC[C@H](OC(=O)CC(C)(C)C(=O)O)C(C)(C)[C@@H]5CC[C@@]4(C)[C@]3(C)CC[C@@]2(NC(=O)NC2CCN(C(=O)OC(C)(C)C)CC2)CC1=O [17-9, 3β-O-(3′,3′-Dimethylsuccinyl)-17β[N′-(1-tert-butyloxycarbonyl-piperidin-4-yl)-ureido]-21-oxolup-18-ene] | < 199 nM |
| CC(C)C1=C2[C@H]3CC[C@@H]4[C@@]5(C)CC[C@H](OC(=O)CC(C)(C)C(=O)O)C(C)(C)[C@@H]5CC[C@@]4(C)[C@]3(C)CC[C@@]2(NC(=O)Nc2ccncn2)CC1=O [17-46, 3β-O-(3′,3′-Dimethylsuccinyl)-17β-(N′-pyrimidin-4-yl-ureido)-21-oxolup-18-ene] | < 199 nM |
| CC(C)C1=C2C3CCC4[C@@]5(C)CC[C@H](OC(=O)CC(C)(C)C(=O)O)C(C)(C)C5CC[C@@]4(C)[C@]3(C)CC[C@@]2(NC(=O)NC2CC2)CC1=O (stereo partly drawn) [17-22, 3β-O-(3′,3′-Dimethylsuccinyl)-17β-(N′-cyclopropyl-ureido)-21-oxolup-18-ene] | < 199 nM |
| CC(C)C1=C2C3CCC4[C@@]5(C)CC[C@H](OC(=O)CC(C)(C)C(=O)O)C(C)(C)C5CC[C@@]4(C)[C@]3(C)CC[C@@]2(NC(=O)NC(C)(C)C(F)(F)F)CC1=O (stereo partly drawn) [17-56, 3β-O-(3′,3′-Dimethylsuccinyl)-17β-[N′-(2,2,2-trifluoro-1,1-dimethyl-ethyl)ureido]-21-oxolup-18-ene] | < 199 nM |
| CC(C)C1=C2C3CCC4[C@@]5(C)CC[C@H](OC(=O)CC(C)(C)C(=O)O)C(C)(C)C5CC[C@@]4(C)[C@]3(C)CC[C@@]2(NC(=O)N2CCC(F)(F)C2)CC1=O (some centres unmarked) [17-58] | < 199 nM |
| Cc1cc(C(=O)N[C@@]23CC[C@]4(C)[C@H](CC[C@@H]5[C@@]6(C)CC[C@H](OC(=O)CC(C)(C)C(=O)O)C(C)(C)[C@@H]6CC[C@]54C)C2=C(C(C)C)C(=O)C3)cc(C)n1 [19-64, 3β-O-(3′,3′-Dimethylsuccinyl)-17β-(2,6-dimethylpyridin-4-yl)amido-21-oxolup-18-ene] | < 199 nM |
| CC(C)C1=C2C3CCC4[C@@]5(C)CC[C@H](OC(=O)CC(C)(C)C(=O)O)C(C)(C)C5CC[C@@]4(C)[C@]3(C)CC[C@@]2(NC(=O)NC2CCNCC2)CC1=O (stereo partly drawn) [17-10, 3β-O-(3′,3′-Dimethylsuccinyl)-17β-(N′-piperidin-4-yl-ureido)-21-oxolup-18-ene] | > 1000 nM |
| CN[C@@]12CC[C@]3(C)[C@H](CC[C@@H]4[C@@]5(C)CC[C@H](OC(=O)CC(C)(C)C(=O)O)C(C)(C)[C@@H]5CC[C@]43C)C1=C(C(C)C)C(=O)C2 [16-2, 3β-O-(3′,3′-Dimethylsuccinyl)-17β-(methylamino)-21-oxolup-18-ene] | < 199 nM |
| CC(C)C1=C2[C@H]3CC[C@@H]4[C@@]5(C)CC[C@H](OC(=O)CC(C)(C)C(=O)O)C(C)(C)[C@@H]5CC[C@@]4(C)[C@]3(C)CC[C@@]2(NC(=O)CN(C)C)CC1=O [19-53, 3β-O-(3′,3′-Dimethylsuccinyl)-17β-(2-dimethylamino-acetamido)-21-oxolup-18-ene] | < 199 nM |
| CC(C)C1=C2C3CCC4[C@@]5(C)CC[C@H](OC(=O)CC(C)(C)C(=O)O)C(C)(C)C5CC[C@@]4(C)[C@]3(C)CC[C@@]2(NC(=O)OCCN2CCCC2=O)CC1=O (stereo partly drawn) [20-24, 3β-O-(3′,3′-Dimethylsuccinyl)-17β-(2-(2-oxo-pyrrolidin)-1-ethoxycarbonylamino)-21-oxolup-18-ene] | < 199 nM |
| CC(C)C1=C2[C@H]3CC[C@@H]4[C@@]5(C)CC[C@H](OC(=O)CC(C)(C)C(=O)O)C(C)(C)[C@@H]5CC[C@@]4(C)[C@]3(C)CC[C@@]2(NC(=O)c2ccc(F)cc2)CC1=O [19-13, 3β-O-(3′,3′-Dimethylsuccinyl)-17β-(4-fluorobenzamido)-21-oxolup-18-ene] | < 199 nM |
| CC(C)C1=C2[C@H]3CC[C@@H]4[C@@]5(C)CC[C@H](OC(=O)CC(C)(C)C(=O)O)C(C)(C)[C@@H]5CC[C@@]4(C)[C@]3(C)CC[C@@]2(NC(=O)N2CCN(C(C)C)CC2)CC1=O [17-29, 3β-O-(3′,3′-Dimethylsuccinyl)-17β-[(4-isopropyl-piperazine-1-carbonyl)-amino]-21-oxolup-18-ene] | < 199 nM |
| CC(C)C1=C2C3CCC4[C@@]5(C)CC[C@H](OC(=O)CC(C)(C)C(=O)O)C(C)(C)C5CC[C@@]4(C)[C@]3(C)CC[C@@]2(NC(=O)C(C)(C)C)CC1=O (stereo partly drawn) [19-32, 3β-O-(3′,3′-Dimethylsuccinyl)-17β-tert-butylamido-21-oxolup-18-ene] | < 199 nM |
| CC(C)C1=C2[C@H]3CC[C@@H]4[C@@]5(C)CC[C@H](OC(=O)CC(C)(C)C(=O)O)C(C)(C)[C@@H]5CC[C@@]4(C)[C@]3(C)CC[C@@]2(NC2CCN(C(=O)OC(C)(C)C)CC2)CC1=O [16-1, 3β-O-(3′,3′-Dimethylsuccinyl)-17β-(1-tert-butyloxycarbonylpiperidine-4-amino]-21-oxolup-18-ene] | < 199 nM |
| Cc1nc(C(=O)N[C@@]23CC[C@]4(C)C(CCC5[C@@]6(C)CC[C@H](OC(=O)CC(C)(C)C(=O)O)C(C)(C)C6CC[C@]54C)C2=C(C(C)C)C(=O)C3)co1 (stereo partly drawn) [19-76, 3β-O-(3′,3′-Dimethylsuccinyl)-17β-(2-methyl-1,3-oxazole-4-amido)-21-oxolup-18-ene] | < 199 nM |

Same assay, conditions: Human immunodeficiency virus 1, MT2 cells, without human serum, average IC50 if tested more than once, read-out: MT2 (HIVIIIB) IC50 range

| SMILES | IC50 |
| --- | --- |
| CC(C)C1=C2C3CCC4[C@@]5(C)CC[C@H](OC(=O)CC(C)(C)C(=O)O)C(C)(C)C5CC[C@@]4(C)[C@]3(C)CC[C@@]2(NC(=O)NC(C)(C)C)CC1=O (stereo partly drawn) [17-5, 3β-O-(3′,3′-Dimethylsuccinyl)-17β-[N′-(tert-butyl)ureido]-21-oxolup-18-ene] | < 199 nM |
| CC(C)C1=C2[C@H]3CC[C@@H]4[C@@]5(C)CC[C@H](OC(=O)CC(C)(C)C(=O)O)C(C)(C)[C@@H]5CC[C@@]4(C)[C@]3(C)CC[C@@]2(NC(=O)N2CCNCC2)CC1=O [17-15, 3β-O-(3′,3′-Dimethylsuccinyl)-17β-[(piperazine-1-carbonyl)-amino]-21-oxolup-18-ene] | < 199 nM |
| CC(C)C1=C2[C@H]3CC[C@@H]4[C@@]5(C)CC[C@H](OC(=O)CC(C)(C)C(=O)O)C(C)(C)[C@@H]5CC[C@@]4(C)[C@]3(C)CC[C@@]2(NC(=O)c2ccc(F)cc2)CC1=O [19-13, 3β-O-(3′,3′-Dimethylsuccinyl)-17β-(4-fluorobenzamido)-21-oxolup-18-ene] | < 199 nM |
| CC(C)C1=C2[C@H]3CC[C@@H]4[C@@]5(C)CC[C@H](OC(=O)CC(C)(C)C(=O)O)C(C)(C)[C@@H]5CC[C@@]4(C)[C@]3(C)CC[C@@]2(NC2CCN(C(=O)OC(C)(C)C)CC2)CC1=O [16-1, 3β-O-(3′,3′-Dimethylsuccinyl)-17β-(1-tert-butyloxycarbonylpiperidine-4-amino]-21-oxolup-18-ene] | < 199 nM |

Same assay, conditions: read-out: MT2 (HIVIIIB) with HS 30% IC50 range, MT2 cells, with 30% human serum, average IC50 if tested more than once

| SMILES | IC50 |
| --- | --- |
| CC(C)C1=C2C3CCC4[C@@]5(C)CC[C@H](OC(=O)CC(C)(C)C(=O)O)C(C)(C)C5CC[C@@]4(C)[C@]3(C)CC[C@@]2(NC(=O)N2CCC(N)CC2)CC1=O (stereo partly drawn) [17-23, 3β-O-(3′,3′-Dimethylsuccinyl)-17β-[(4-amino-piperidine-1-carbonyl)-amino]-21-oxolup-18-ene trifluoroacetate] | 200 to 999 nM |
